Measurements reported in US8697725B2, “Tetrahydroquinoline derivatives and their pharmaceutical use” (GlaxoSmithKline LLC, priority 2009, dated 2014).
Structures can show the parent of a compound that is named as a salt.

Test system: IL-6
Assay: Measurement of LPS Induced IL-6 Secretion from Whole Blood
Assay type: cell-based
Conditions: 24 h, LPS 200 ng/ml, immunoassay, read-out: pIC50, LPS induced IL-6 secretion from whole blood (converted)
Procedure: Measurement of LPS Induced IL-6 Secretion from Whole Blood
Activation of monocytic cells by agonists of toll-like receptors such as bacterial lipopolysaccharide (LPS) results in production of key inflammatory mediators including IL-6. Such pathways are widely considered to be central to the pathophysiology of a range of auto-immune and inflammatory disorders.
Compounds to be tested are diluted to give a range of appropriate concentrations of which 1 ul of the diluted stocks is added to a 96 well plate. Following addition of whole blood (130 ul) the plates are incubated at 37 degrees (5% CO2) for 30 min before the addition of 10 ul of 2.8 ug/ml LPS, diluted in complete RPMI 1640 (final concentration=200 ng/ml), to give a total volume of 140 ul per well. After further incubation for 24 hours at 37 degrees, 140 ul of PBS are added to each well. The plates are sealed, shaken for 10 minutes and then centrifuged (2500 rpm×10 min). 100 ul of the supernatant are removed and IL-6 levels assayed by immunoassay (typically by MesoScale Discovery technology) either immediately or following storage at −20 degrees. Concentration response curves for each compound was generated from the data and an IC50 value was calculated.

| SMILES | IC50 [µM] |
| --- | --- |
| CC(=O)N1c2ccc(-c3noc(CCN(C)C)n3)cc2[C@H](NC(=O)OC(C)C)C[C@@H]1C [Example 78, 1-Methylethyl((2S,4R)-1-acetyl-6-{5-[2-(dimethylamino)ethyl]-1,2,4-oxadiazol-3-yl}-2-methyl-1,2,3,4-tetrahydro-4-quinolinyl)carbamate hydrochloride] | ≤ 31.6 |
| CC(=O)N1c2ccc(-c3nnc(C)s3)cc2[C@H](NC(=O)OC(C)C)C[C@@H]1C [Example 68, 1-Methylethyl[(2S,4R)-1-acetyl-2-methyl-6-(5-methyl-1,3,4-thiadiazol-2-yl)-1,2,3,4-tetrahydro-4-quinolinyl]carbamate] | ≤ 31.6 |
| CC(=O)N1c2ccc(-c3cn(CCCN(C)C)nn3)cc2[C@H](NC(=O)OC(C)C)C[C@@H]1C [Example 81, 1-Methylethyl((2S,4R)-1-acetyl-6-{1-[3-(dimethylamino)propyl]-1H-1,2,3-triazol-4-yl}-2-methyl-1,2,3,4-tetrahydro-4-quinolinyl)carbamate formate salt] | ≤ 31.6 |
| CC(=O)N1c2ccc(-c3nc(CN)no3)cc2[C@H](NC(=O)OC(C)C)C[C@@H]1C [Example 69, 1-Methylethyl {(2S,4R)-1-acetyl-6-[3-(aminomethyl)-1,2,4-oxadiazol-5-yl]-2-methyl-1,2,3,4-tetrahydro-4-quinolinyl}carbamate hydrochloride] | ≤ 31.6 |
| CC(=O)N1c2ccc(-c3cn(CC(=O)O)cn3)cc2[C@@H](NC(=O)OC(C)C)C[C@H]1C (racemic) [Example 90, {4-[(Cis)-1-acetyl-2-methyl-4-({[(1-methylethyl)oxy]carbonyl}amino)-1,2,3,4-tetrahydro-6-quinolinyl]-1H-imidazol-1-yl}acetic acid trifluoroacetate] | ≤ 31.6 |
| CC(=O)N1c2ccc(-c3cnn(CC(C)(C)O)c3)cc2[C@H](NC(=O)OC(C)C)C[C@@H]1C [Example 109, 1-Methylethyl {(2S,4R)-1-acetyl-6-[1-(2-hydroxy-2-methylpropyl)-1H-pyrazol-4-yl]-2-methyl-1,2,3,4-tetrahydro-4-quinolinyl}carbamate] | ≤ 31.6 |
| CC(=O)N1c2ccc(-n3ccnc3C)cc2[C@H](NC(=O)OC(C)C)C[C@@H]1C [Example 88, 1-Methylethyl[(2S,4R)-1-acetyl-2-methyl-6-(2-methyl-1H-imidazol-1-yl)-1,2,3,4-tetrahydro-4-quinolinyl]carbamate] | ≤ 31.6 |
| CC(=O)N1c2ccc(-c3cncn3C)cc2[C@H](NC(=O)OC(C)C)C[C@@H]1C [Example 82, 1-Methylethyl[(2S,4R)-1-acetyl-2-methyl-6-(1-methyl-1H-imidazol-5-yl)-1,2,3,4-tetrahydro-4-quinolinyl]carbamate] | ≤ 31.6 |
| CC(=O)N1c2ccc(-c3cn(CCN)cn3)cc2[C@H](NC(=O)OC(C)C)C[C@@H]1C [Example 85, 1-Methylethyl {(2S,4R)-1-acetyl-6-[1-(2-aminoethyl)-1H-imidazol-4-yl]-2-methyl-1,2,3,4-tetrahydro-4-quinolinyl}carbamate hydrochloride] | ≤ 31.6 |
| CC(=O)N1c2ccc(-c3ccccc3C)cc2[C@H](NC(=O)OC(C)C)C[C@@H]1C [Example 93, 1-Methylethyl[(2S,4R)-1-acetyl-2-methyl-6-(2-methylphenyl)-1,2,3,4-tetrahydro-4-quinolinyl]carbamate] | ≤ 31.6 |
| CC(=O)N1c2ccc(-c3noc(CCN)n3)cc2[C@H](NC(=O)OC(C)C)C[C@@H]1C [Example 77, 1-Methylethyl {(2S,4R)-1-acetyl-6-[5-(2-aminoethyl)-1,2,4-oxadiazol-3-yl]-2-methyl-1,2,3,4-tetrahydro-4-quinolinyl}carbamate hydrochloride] | ≤ 31.6 |
| CC(=O)N1c2ccc(-c3cn(CCC(=O)O)cn3)cc2[C@@H](NC(=O)OC(C)C)C[C@H]1C (racemic) [Example 99, 3-{(Cis)-4-[1-acetyl-2-methyl-4-({[(1-methylethyl)oxy]carbonyl}amino)-1,2,3,4-tetrahydro-6-quinolinyl]-1H-imidazol-1-yl}propanoic acid trifluoroacetate] | ≤ 31.6 |
| CC(=O)N1c2ccc(-c3c[nH]nn3)cc2[C@H](NC(=O)OC(C)C)C[C@@H]1C [Example 65, 1-Methylethyl[(2S,4R)-1-acetyl-2-methyl-6-(1H-1,2,3-triazol-4-yl)-1,2,3,4-tetrahydro-4-quinolinyl]carbamate] | ≤ 31.6 |
| CC(=O)N1c2ccc(-n3cnc(C(=O)O)c3)cc2[C@@H](NC(=O)OC(C)C)C[C@H]1C (racemic) [Example 87, 1-[(Cis)-1-acetyl-2-methyl-4-({[(1-methylethyl)oxy]carbonyl}amino)-1,2,3,4-tetrahydro-6-quinolinyl]-1H-imidazole-4-carboxylic acid] | ≤ 31.6 |
| CC(=O)N1c2ccc(-c3ccc(CCO)cc3)cc2[C@H](NC(=O)OC(C)C)C[C@@H]1C [Example 95, 1-Methylethyl {(2S,4R)-1-acetyl-6-[4-(2-hydroxyethyl)phenyl]-2-methyl-1,2,3,4-tetrahydro-4-quinolinyl}carbamate] | ≤ 31.6 |
| CC(=O)N1c2ccc(-c3ccccc3)cc2[C@H](NC(=O)OC(C)C)C[C@@H]1C [Example 94, 1-Methylethyl[(2S,4R)-1-acetyl-2-methyl-6-phenyl-1,2,3,4-tetrahydro-4-quinolinyl]carbamate] | ≤ 31.6 |
| CC(=O)N1c2ccc(-n3cnc(C)c3)cc2[C@H](NC(=O)OC(C)(C)C)C[C@@H]1C (relative stereo) [Example 123, 1,1-Dimethylethyl[(cis)-1-acetyl-2-methyl-6-(4-methyl-1H-imidazol-1-yl)-1,2,3,4-tetrahydro-4-quinolinyl]carbamate] | ≤ 31.6 |
| CC(=O)N1c2ccc(-n3cnc(C)c3)cc2[C@H](NC(=O)OC(C)C)C[C@@H]1C (single isomer, unassigned) [Example 103] | ≤ 31.6 |
| CC(=O)N1c2ccc(-n3cnc(CNCCO)c3)cc2[C@@H](NC(=O)OC(C)C)C[C@H]1C (racemic) [Example 92, 1-Methylethyl[(cis)-1-acetyl-6-(4-{[(2-hydroxyethyl)amino]methyl}-1H-imidazol-1-yl)-2-methyl-1,2,3,4-tetrahydro-4-quinolinyl]carbamate] | ≤ 31.6 |
| CC(=O)N1c2ccc(-c3ccc(CCC(=O)O)cc3)cc2[C@H](NC(=O)OC(C)C)C[C@@H]1C [Example 102, 3-{4-[(2S,4R)-1-Acetyl-2-methyl-4-({[(1-methylethyl)oxy]carbonyl}amino)-1,2,3,4-tetrahydro-6-quinolinyl]phenyl}propanoic acid] | ≤ 31.6 |
| CC(=O)N1c2ccc(-c3ccccn3)cc2[C@H](NC(=O)OC(C)C)C[C@@H]1C [Example 101, 1-Methylethyl[(2S,4R)-1-acetyl-2-methyl-6-(2-pyridinyl)-1,2,3,4-tetrahydro-4-quinolinyl]carbamate] | ≤ 31.6 |
| CC(=O)N1c2ccc(-c3ccc(CC(=O)O)cc3)cc2[C@H](NC(=O)OC(C)C)C[C@@H]1C [Example 67, {4-[(2S,4R)-1-Acetyl-2-methyl-4-({[(1-methylethyl)oxy]carbonyl}amino)-1,2,3,4-tetrahydro-6-quinolinyl]phenyl}acetic acid] | ≤ 31.6 |
| CNCCc1noc(-c2ccc3c(c2)[C@H](NC(=O)OC(C)C)C[C@H](C)N3C(C)=O)n1 [Example 71, 1-Methylethyl((2S,4R)-1-acetyl-2-methyl-6-{3-[2-(methylamino)ethyl]-1,2,4-oxadiazol-5-yl}-1,2,3,4-tetrahydro-4-quinolinyl)carbamate hydrochloride] | ≤ 31.6 |
| CC(=O)N1c2ccc(-c3ccc(CCN)cc3)cc2[C@H](NC(=O)OC(C)C)C[C@@H]1C [Example 96, 1-Methylethyl {(2S,4R)-1-acetyl-6-[4-(2-aminoethyl)phenyl]-2-methyl-1,2,3,4-tetrahydro-4-quinolinyl}carbamate hydrochloride] | ≤ 31.6 |
| CC(=O)N1c2ccc(-c3cn(CCN)nn3)cc2[C@H](NC(=O)OC(C)C)C[C@@H]1C [Example 79, 1-Methylethyl {(2S,4R)-1-acetyl-6-[1-(2-aminoethyl)-1H-1,2,3-triazol-4-yl]-2-methyl-1,2,3,4-tetrahydro-4-quinolinyl}carbamate hydrochloride] | ≤ 31.6 |
| COCn1cc(-c2ccc3c(c2)[C@H](NC(=O)OC(C)C)C[C@H](C)N3C(C)=O)cn1 [Example 106, 1-Methylethyl((2S,4R)-1-acetyl-2-methyl-6-{1-[(methyloxy)methyl]-1H-pyrazol-4-yl}-1,2,3,4-tetrahydro-4-quinolinyl)carbamate] | ≤ 31.6 |
| CC(=O)N1c2ccc(-n3cnc(CO)c3)cc2[C@@H](NC(=O)OC(C)C)C[C@H]1C (racemic) [Example 89, 1-Methylethyl {(cis)-1-acetyl-6-[4-(hydroxymethyl)-1H-imidazol-1-yl]-2-methyl-1,2,3,4-tetrahydro-4-quinolinyl}carbamate] | ≤ 31.6 |
| CC(=O)N1c2ccc(-c3cn(C)cn3)cc2[C@H](NC(=O)OC(C)C)CC1C (stereo partly drawn) [Example 83, 1-Methylethyl[(2S,4R)-1-acetyl-2-methyl-6-(1-methyl-1H-imidazol-4-yl)-1,2,3,4-tetrahydro-4-quinolinyl]carbamate hydrochloride] | ≤ 31.6 |
| CC(=O)N1c2ccc(-c3noc(C)n3)cc2[C@H](NC(=O)OC(C)C)C[C@@H]1C [Example 64, 1-Methylethyl[(2S,4R)-1-acetyl-2-methyl-6-(5-methyl-1,2,4-oxadiazol-3-yl)-1,2,3,4-tetrahydro-4-quinolinyl]carbamate] | ≤ 31.6 |
